Source: US7531555B2, “Compositions and methods for selective inhibition of nicotine acetylcholine receptors” (University of Florida Research Foundation, Inc., priority 2003, dated 2009)
Like-named read-outs stand apart in the source and are kept apart here.

Key:
[1] = tested on: mice; assay: Hot-plate test, blockade of nicotine-induced antinociception; format: in vivo
Protocol: Animals. Male ICR mice (20-25 g) obtained from Harlan Laboratories (Indianapolis, Ind.) were used throughout the study. Animals were housed in groups of six and had free access to food and water. Adult, male Long-Evans rats (350-460 g), obtained from Harlan (Dublin, Va.), were individually housed in a temperature-controlled (20-22° C.) environment with a 12-hour light-dark cycle (lights on at 7 a.m.). Rats were maintained within the indicated weight range by restricted post-session feeding and had ad libitum water in their home cages. Rats were drug-naive at the beginning of the study. Animals were housed in an AALAC approved facility and the study was approved by the Institutional Animal Care and Use Committee of Virginia Commonwealth University.
2. Hot-plate Test. Mice were placed into a 10 cm wide glass cylinder on a hot plate (Thermojust Apparatus) maintained at 55.0° C. Two control latencies at least 10 minutes apart were determined for each mouse. […] Antinociceptive response was calculated as percent maximum possible effect (% MPE), where % MPE=[(test-control)/(40-control)×100]. The reaction time was scored when the animal jumped or licked its paws. […]
The doses of nicotine used in the different tests represent approximately an ED84 (Effective dose 84%) which were determined from previous works (Damaj et al. Psychopharmacology (Berl), 1995, 117:67-73). […]

[2] = molecular target: T1, Rat α6/3β2β3 (Rattus norvegicus, UniProt P04757+P12390+P12391+P43143); assay: Voltage clamp of Xenopus oocytes expressing α6/3 chimera with β2 and β3; format: cell-based
T1 construct: evaluation of the effects of the α6 extracellular domain; remainder of rat α3 subunit (transmembrane and intracellular part); expressed in transfected cells; host or cells: Xenopus laevis oocytes injected with subunit cRNAs; α6/3 clone from Michael McIntosh (University of Utah), corrected in house by QuickChange
T1 sequence (P43143+P04757 fused with the stated changes): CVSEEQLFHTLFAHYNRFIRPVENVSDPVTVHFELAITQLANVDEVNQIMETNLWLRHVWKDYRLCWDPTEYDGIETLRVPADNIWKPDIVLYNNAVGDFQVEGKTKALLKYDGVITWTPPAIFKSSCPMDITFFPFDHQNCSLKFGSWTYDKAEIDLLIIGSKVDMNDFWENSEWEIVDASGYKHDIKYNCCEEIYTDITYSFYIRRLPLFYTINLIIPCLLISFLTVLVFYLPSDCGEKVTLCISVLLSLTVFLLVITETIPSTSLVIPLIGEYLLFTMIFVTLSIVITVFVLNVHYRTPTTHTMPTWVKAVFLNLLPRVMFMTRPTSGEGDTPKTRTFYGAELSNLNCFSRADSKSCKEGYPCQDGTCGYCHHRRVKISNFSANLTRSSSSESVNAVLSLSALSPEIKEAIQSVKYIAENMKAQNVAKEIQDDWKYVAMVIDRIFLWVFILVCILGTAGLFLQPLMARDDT
T1 sequence (P12390 25-500): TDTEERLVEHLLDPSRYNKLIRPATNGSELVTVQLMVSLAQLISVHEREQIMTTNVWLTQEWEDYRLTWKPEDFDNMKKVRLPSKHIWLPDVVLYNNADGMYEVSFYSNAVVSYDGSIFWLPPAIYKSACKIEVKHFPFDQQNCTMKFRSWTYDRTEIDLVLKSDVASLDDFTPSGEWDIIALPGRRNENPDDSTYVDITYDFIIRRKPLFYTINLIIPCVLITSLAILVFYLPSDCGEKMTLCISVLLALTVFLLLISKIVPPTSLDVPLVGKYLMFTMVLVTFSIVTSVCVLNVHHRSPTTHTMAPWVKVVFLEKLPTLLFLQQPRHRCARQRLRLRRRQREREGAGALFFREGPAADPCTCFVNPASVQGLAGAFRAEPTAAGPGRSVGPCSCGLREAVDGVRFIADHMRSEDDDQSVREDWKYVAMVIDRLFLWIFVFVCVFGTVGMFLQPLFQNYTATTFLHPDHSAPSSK
T1 sequence (P12391 31-464): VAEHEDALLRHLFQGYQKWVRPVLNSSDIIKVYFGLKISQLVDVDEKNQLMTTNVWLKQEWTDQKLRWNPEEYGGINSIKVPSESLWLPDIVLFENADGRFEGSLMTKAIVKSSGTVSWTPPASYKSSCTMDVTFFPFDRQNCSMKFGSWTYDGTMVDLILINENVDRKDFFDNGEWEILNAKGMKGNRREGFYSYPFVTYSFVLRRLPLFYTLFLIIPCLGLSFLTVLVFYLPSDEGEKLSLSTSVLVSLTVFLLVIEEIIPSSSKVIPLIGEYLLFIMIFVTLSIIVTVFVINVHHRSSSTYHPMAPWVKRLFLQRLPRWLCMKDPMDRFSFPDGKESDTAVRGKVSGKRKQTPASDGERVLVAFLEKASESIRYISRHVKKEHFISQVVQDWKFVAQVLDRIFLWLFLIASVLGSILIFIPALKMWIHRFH
Protocol: Mature (>9 cm) female Xenopus laevis African frogs (NASCO, Ft. Atkinson, Wis.) were used as a source of oocytes. Prior to surgery, frogs were anesthetized by placing the animal in a 1.5 g/l solution of MS222 (3-aminobenzoic acid ethyl ester) for 30 minutes. Oocytes were removed from an incision made in the abdomen.
In order to remove the follicular cell layer, harvested oocytes were treated with 1.25 mg/ml collagenase from Worthington Biochemical Corporation (Freehold, N.J.) for 2 hours at room temperature in calcium-free Barth's solution (88 mM NaCl, 10 mM HEPES pH 7.6, 0.33 mM MgSO4, 0.1 mg/ml gentamicin sulfate). Subsequently, stage 5 oocytes were isolated and injected with 50 nl (5-20 ng) each of the appropriate subunit cRNAs. Recordings were made 2 to 15 days after injection.
Rat neuronal nAChR clones and mouse muscle nAChR cDNA clones were used. The wild-type clones were obtained from Dr. Jim Boulter (UCLA). The rat α6/3 (Dowell et al. J Neurosci, 2003, 23:8445-8452) clone was obtained from Michael McIntosh (University of Utah) and expressed in Xenopus oocytes in combinations with rat β2 and β3. […] The TM2 domain is understood to line the pore of the channel, with alpha helix structure. The 7′ position may actually be directed away from the actual pore lining, but this residue is highly conserved in all of the nAChR. It is valine in all of them except α9 (isoleucine) and β1, where it is alanine. The TM2 mutation in the α6/3 chimera was corrected by using QuickChange (Stratagene) according to their protocols. The corrected α6/3 chimera sequence was confirmed by restriction diagnostics and by automated fluorescent sequencing (University of Florida core facility). The corrected clone was expressed as above in Xenopus oocytes with β2 and β3 and compared to the wild-type α3 co-expressed with β2 and β3.
After linearization and purification of cloned cDNAs, RNA transcripts were prepared in vitro using the appropriate mMessage mMachine kit from Ambion Inc. (Austin, Tex.).
Electrophysiology. The majority of experiments were conducted using OpusXpress 6000A (Axon Instruments, Union City Calif.). OpusXpress is an integrated system that provides automated impalement and voltage clamp of up to eight oocytes in parallel. Cells were automatically perfused with bath solution, and agonist solutions were delivered from a 96-well plate. Both the voltage and current electrodes were filled with 3 M KCl. The agonist solutions were applied via disposable tips, which eliminated any possibility of cross-contamination. Drug applications alternated between ACh controls and experimental applications. Flow rates were set at 2 ml/min for experiments with α7 receptors and 4 ml/min for other subtypes. Cells were voltage-clamped at a holding potential of −60 mV. Data were collected at 50 Hz and filtered at 20 Hz. Agonist applications were 12 seconds in duration followed by 181-second washout periods for α7 receptors and 8 seconds with 241-second wash periods for other subtypes. For some experiments, particularly under conditions where residual inhibition precluded making repeated measurements from single cells (see below), manual oocyte recordings were made as previously described (Papke and Papke Br J of Pharmacol, 2002, 137:49-61). In brief, Warner Instruments (Hamden, Conn.) OC-725C oocyte amplifiers were used, and data were acquired with a minidigi or digidata 1200A with pClamp9 software (Axon Instruments). Sampling rates were between 10 and 20 Hz and the data were filtered at 6 Hz. […]

CCCCCCC(=O)OC1CC(C)(C)NC(C)(C)C1 [TMPH, 2,2,6,6-tetramethylpiperidin-4-yl heptanoate]
time at which nicotine's effect recovered fully to pre-treatment value, hot-plate ([1]; pretreatment with TMPH 5 mg/kg): 60 min | antinociception by TMPH itself, hot-plate ([1]; s.c. injection, at the indicated doses and times): did not cause antinociception | IC50 ([2]; decrease in net charge, 100 μM ACh co-applied with TMPH, read-out: IC50 (area)): 1000 ± 300 nM | IC50 ([2]; decrease in peak current amplitude, 100 μM ACh co-applied with TMPH, read-out: IC50 (peak)): 60000 ± 20000 nM | IC50 ([2]; inhibition still present after 5-minute wash, read-out: IC50 (recovery)): 2300 ± 500 nM | IC50 net charge/IC50 peak ([2]; ratio): .017 | IC50 recovery/IC50 net charge ([2]; ratio): 2.0
